# Data published in US20260306502A1, “MITOCHONDRIAL UNCOUPLERS FOR TREATMENT OF METABOLIC DISEASES AND CANCER” (Mito Biopharma, LLC, priority 2022, published 2026).
# Entries after “also recorded” stand apart in the source; their conditions may differ.
# Legend:
# C57Bl6 mice = experiment: Determination of acute toxicity; settings: in words
# Procedure: Acute toxicity tests were performed on C57Bl6 mice, male, 6 weeks old, n=6. […] The tests were performed under fed condition, by oral gavage of 100-400 μL compound suspension according to the body weight to desired dosages (mg/kg). The mice were supplied with drinking water all through the testing time. […] MED was determined in diabetic and steatosis mouse models (Table 9).
# Acute toxicity tests were performed on C57Bl6 mice, male, 6 weeks old, n=6 for each dose. […] The tests were performed under fed condition, by oral gavage of 100-400 μL compound suspension according to the body weight to desired dosages (mg/kg). The mice were supplied with drinking water all through the testing time. Mouse behaviors were monitored every 15-30 minutes.
# NIH3T3 = experiment: Cell growth inhibition assay (SRB), NIH3T3; assay type: cell-based; settings: Mus musculus, NIH3T3, 48 h
# Procedure: Cell growth inhibition assays were performed using a protocol standardized by National Cancer Institute (NCI) for evaluating anti-cancer drugs. Various mammalian cell lines were used for the assays. Briefly, the cells were inoculated into 96 well microtiter plates. After cell inoculation, the microtiter plates were incubated for cell growth for 24 h prior to the addition of compounds. After 24 h, two plates of each cell line were fixed in situ with TCA, to represent a measurement of the cell population for each cell line at the time of compound addition (Tz). Test compounds were solubilized in dimethyl sulfoxide. At the time of test compound addition, five 10-fold or ½ log serial dilutions were made to provide a total of five test compound concentrations plus control. Aliquots of 100 μl of these different test compound dilutions were added to the appropriate microtiter wells already containing 100 μl of the medium, resulting in the required final test compound concentrations. […] The bound stain was subsequently solubilized with 10 mM trizma base, and the absorbance was read on an automated plate reader at a wavelength of 515 nm. Using the seven absorbance measurements [time zero, (Tz), control growth, (C), and test growth in the presence of a compound at the five concentration levels (Ti)], the percentage growth was calculated at each of the test compound concentrations levels.
# [1] = system: carbon tetrachloride (CCl4)-induced liver fibrosis NASH murine model; experiment: CCl4-induced liver fibrosis NASH murine model; assay type: in vivo, mouse; settings: CCl4 mice
# Procedure: CCl4 is a hepatotoxin that induces acute liver injury in mice and induces oxidative damage, inflammation, and liver fibrosis in mice, independent of liver steatosis, and thus is considered as a “pure” fibrotic model.
# C57Bl6 male mice at the age of 7-8 weeks were randomized into 3 groups: vehicle, CCl4 alone treatment, CCl4 plus Compound treatment, n=7. CCl4 was diluted in olive oil (1:5 v/v), and intraperitoneally injected at a dose of 750 μl/kg to the mice, twice a week for 6 weeks. Compound treatment started at the beginning of CCl4 injection. At the end of treatment, the mice were euthanized and liver tissue was collected. For histology analyses, the liver tissue was fixed and paraffin embedded; tissue sections were stained with hematoxylin and eosin (H&E), or with Picrosirius red. The fibrosis severities were scored by a board-certified pathologist based on Picrosirius red stain of the liver. For immunoblotting analyses, the liver tissue was homogenized and the proteins were separated by native page gel electrophoresis. The levels of Collagen I and GAPDH were detected by Collagen I polyclonal antibody (Abcam ab34710) and GAPDH (14C10) Rabbit mAb (Cell signaling #2118).
# MC38 cells = experiment: Anti-cancer effect in combination with a PD-1 inhibitor, MC38 cells transplanted in liver; assay type: in vivo, mouse; settings: in words
# Text: FIG. 20A is the experimental design (see Example B12). Briefly, C57/Bl6 mice intrahepatically transplanted with MC38 cancer cells (day 0) were subject to various treatments starting on day 7: aPD-1 or isotype, mice were either treated with PD-1 antibody or its isotype antibody (control) by intraperitoneal (IP) injection on indicated days (PD-1 antibody has a half-life of over 1 week in mice); #64 or vehicle, mice were either treated with Compound #64 or vehicle by daily gavage. FIG. 20B is a table depicting outcomes of the experiments described in FIG. 20A and Example B12. aPD-1+#64 represents mice treated with PD-1 antibody (IP) and #64 (daily gavage); aPD-1 represents mice treated with PD-1 antibody (IP) and vehicle (gavage); control, represents mice treated with isotype antibody (IP) and vehicle (gavage); n is number of mice in each group. Tumor-positive is the number of tumor-bearing mice in each group; tumor-free is the number of tumor-free mice in each group; tumor-free % is the percentage of tumor-free animals in each group. […]
# The experimental design is illustrated in FIG. 20A. Mouse colon cancer cells, MC38, were transplanted in livers of immune competent B57/Bl6 mice, and the effect of the combinatory treatment was determined. […] Tumor incidence and volume were determined.
# TGF-β signaling pathway [2] = experiment: TGF-β signaling pathway activation (Smad2/3 phosphorylation) in LX-2 cells, immunoblotting; assay type: cell-based, human; settings: 6 hrs, FIG. 17B
# Procedure: Cells were then harvested, and immunoblotting analyses was performed with antibodies against p-Smad2/3 (phosphorylated Smad2/3), Smad2/3, or GAPDH, as indicated.
# TGF-β signaling pathway [3] = experiment: TGF-β signaling pathway activation (Smad2/3 phosphorylation) in T cells (Jurkat, primary mouse CD8+), immunoblotting; assay type: cell-based, human Jurkat cells and mouse primary T-cells; settings: Jurkat and mouse primary T-cells, 6 hours, FIG. 19
# Procedure: Jurkat cells (a human T-cell cancer cell line) and the primary mouse CD8+ cells (T-cells) were tested. The cells were treated with TGF-β (10 ng/ml) alone, or TGF-β (10 ng/ml) plus compound at various concentrations (e.g. 0.5, 1.0, 2.0 μM), or treated with vehicle (control), for 6 hours. The cells were then harvested, and cell lysates were subjected to immunoblotting analyses with antibodies against Smad2/3, phosphorylated Smad2/3, and GAPDH.
Structure (SMILES),acute toxicity profile over DNP (C57Bl6 mice),GI50 (NIH3T3),"effect on fibrosis formation and fibrosis scores ([1]; 7.5 mg/kg/day, 6 weeks)",effect on collagen levels ([1]; immunoblotting),efficacy in combinatory therapy with PD-1 antibody in treating metastatic cancer in mice (MC38 cells),effect on TGF-β signaling pathway activation (Smad2/3 phosphorylation) (TGF-β signaling pathway [2]),effect on TGF-β signaling pathway activation in T cells (TGF-β signaling pathway [3])
"COCCN(CCOC)Cc1cc(Cl)cc(C(=O)Nc2nc3ccc(C(F)(F)F)cc3s2)c1O [Compound 25, 3-((bis(2-methoxyethyl)amino)methyl)-5-chloro-2-hydroxy-N-(6-(trifluoromethyl)benzo[d]thiazol-2-yl)benzamide]",drastically improved acute toxicity profiles over DNP,> 20 µM,reduced fibrosis formation and improved fibrosis scores; also recorded: reduces fibrosis in CCl4 treated animals,reduces collagen levels,–,–,–
"COCCOCc1cc(C(F)(F)F)cc2sc(NC(=O)c3cc(Cl)cc(CN4C[C@@H](C)O[C@@H](C)C4)c3O)nc12 [Compound 64, 5-chloro-3-((cis-2,6-dimethylmorpholino)methyl)-2-hydroxy-N-(4-((2-methoxyethoxy)methyl)-6-(trifluoromethyl)benzo[d]thiazol-2-yl)benzamide]",drastically improved acute toxicity profiles over DNP,–,–,–,efficacious in combinatory therapy with PD-1 antibody,blocks activation of TGF-β signaling pathway at early stages by inhibiting Smad2/3 phosphorylation,effectively blocks TGF-β signaling pathway activation in T cells
